Measurements: patent US20240384350A1, “METHODS OF TREATING CANCER WITH KINASE INHIBITORS” (BOARD OF REGENTS, THE UNIVERSITY OF TEXAS SYSTEM, priority 2021, published 2024)

Tests used:
Test in all cases: Ba/F3 drug screening, Cell Titer Glo, IC50 Mut/WT
Format in all cases: cell-based
EGFR Ex19del = target: T1, EGFR Ex19del (Homo sapiens, UniProt P00533, DEL746-750); conditions: Classical-Like, 72 hours
T1 construct: expressed in transfected cells; host or cells: Ba/F3 cells, retroviral pBabe-Puro vector

EGFR R776H = target: T2, EGFR R776H (Homo sapiens, UniProt P00533, R776H); conditions: Ba/F3 cells, EGFR R776H (PACC), Mut/WT
T2 construct: host or cells: Ba/F3

EGFR G719A = target: T3, EGFR G719A (Homo sapiens, UniProt P00533, G719A); conditions: Ba/F3 cells, EGFR G719A (PACC), Mut/WT
T3 construct: expressed in transfected cells; host or cells: Ba/F3
Description: (§1) Data represent the ratio of the IC50 value for a given TKI for cells with a PACC EGFR mutation to the IC50 value for cells with wildtype EGFR.
(§2) Ba/F3 cell generation, drug screening, and IC50 approximations. Ba/F3 cells were obtained as a gift from Dr. Gordon Mills (MD Anderson Cancer Center), and maintained in RPMI (Sigma) containing 10% FBS, 1% penicillin/streptomycin, and 10 ng/ml recombinant mIL-3 (R&D Biosystems). To establish stable Ba/F3 cell lines, Ba/F3 cells were transduced with retroviruses containing mutant EGFR plasmids for 12-24 hours.
(§3) After 48-72 hours of transduction, 2 μg/ml puromycin (Invitrogen) was added to Ba/F3 cell lines in complete RPMI. To select for EGFR positive cell lines, cells were stained with PE-EGFR (Biolegend) and sorted by FACS. After sorting, EGFR positive cells were maintained in RPMI containing 10% FBS, 1% penicillin/streptomycin, and 1 ng/ml EGF to support cell viability. Drug screening was performed as previously described^41,42. Shortly, cells were plated in 384-well plates (Greiner Bio-One) at 2000-3000 cells per well in technical triplicate. Seven different concentrations of TKIs or DMSO vehicle were added to reach a final volume of 40 μL per well. After 72 hours, 11 μL of Cell Titer Glo (Promega) was added to each well. Plates were incubated for a minimum of 10 minutes, and bioluminescence was determined using a FLUOstar OPTIMA plate reader (BMG LABTECH). Raw bioluminescence values were normalized to DMSO control treated cells, and values were plotted in GraphPad Prism. […] Drug screens were performed in technical triplicate on each plate and either duplicate or triplicate biological replicates.

EGFR K757R = target: T4, EGFR K757R (Homo sapiens, UniProt P00533, K757R); conditions: Ba/F3 cells, EGFR K757R (PACC), Mut/WT
T4 construct: expressed in transfected cells; host or cells: Ba/F3

EGFR L858R/V834L = target: T5, EGFR L858R/V834L (Homo sapiens, UniProt P00533, L858R/V834L); conditions: Classical-Like, 72 hours
T5 construct: expressed in transfected cells; host or cells: Ba/F3 cells, retroviral pBabe-Puro vector
Description: (§4) Data represent the ratio of the IC50 value for a given TKI for cells with a classical-like EGFR mutation to the IC50 value for cells with wildtype EGFR.
as §2
(§5) After 48-72 hours of transduction, 2 μg/ml puromycin (Invitrogen) was added to Ba/F3 cell lines in complete RPMI. To select for EGFR positive cell lines, cells were stained with PE-EGFR (Biolegend) and sorted by FACS. After sorting, EGFR positive cells were maintained in RPMI containing 10% FBS, 1% penicillin/streptomycin, and 1 ng/ml EGF to support cell viability. […] Shortly, cells were plated in 384-well plates (Greiner Bio-One) at 2000-3000 cells per well in technical triplicate. Seven different concentrations of TKIs or DMSO vehicle were added to reach a final volume of 40 μL per well. After 72 hours, 11 μL of Cell Titer Glo (Promega) was added to each well. Plates were incubated for a minimum of 10 minutes, and bioluminescence was determined using a FLUOstar OPTIMA plate reader (BMG LABTECH). Raw bioluminescence values were normalized to DMSO control treated cells, and values were plotted in GraphPad Prism. […] Drug screens were performed in technical triplicate on each plate and either duplicate or triplicate biological replicates.

EGFR S768I V774M = target: T6, EGFR S768I V774M (Homo sapiens, UniProt P00533, S768I/V774M); conditions: Ba/F3 cells, EGFR S768I V774M (PACC), Mut/WT
T6 construct: host or cells: Ba/F3

EGFR Ex19del T790M L718V = target: T7, EGFR Ex19del T790M L718V (Homo sapiens, UniProt P00533, DEL746-750/L718V/T790M); conditions: T790M-like-3S, 72 hours
T7 construct: expressed in transfected cells; host or cells: Ba/F3
Description: Data represent the ratio of the IC50 value for a given TKI for cells with a T790M-like-3S EGFR mutation to the IC50 value for cells with wildtype EGFR.
as §2, §3

EGFR L858R S784F = target: T8, EGFR L858R S784F (Homo sapiens, UniProt P00533, L858R/S784F); conditions: Classical-Like, 72 hours
T8 construct: expressed in transfected cells; host or cells: Ba/F3 cells, retroviral pBabe-Puro vector (vector made by GeneScript from EGFR L858R)
Description: as §4, §2, §5

EGFR Ex19del G796S = target: T9, EGFR Ex19del G796S (Homo sapiens, UniProt P00533, DEL746-750/G796S); conditions: Ba/F3 cells, EGFR Ex19del G796S (PACC), Mut/WT
T9 construct: expressed in transfected cells; host or cells: Ba/F3
Description: as §1, §2, §3

EGFR L858R T790M L718V = target: T10, EGFR L858R T790M L718V (Homo sapiens, UniProt P00533, L718V/L858R/T790M); conditions: T790M-like-3R, 72 hours
T10 construct: expressed in transfected cells; host or cells: Ba/F3

EGFR E709_T710del insD = target: T11, EGFR E709_T710del insD (Homo sapiens, UniProt P00533, DEL709-709/T710D); conditions: Ba/F3 cells, EGFR E709_T710del insD (PACC), Mut/WT
T11 construct: expressed in transfected cells; host or cells: Ba/F3
Description: as §1, §2, §3

EGFR L861R = target: T12, EGFR L861R (Homo sapiens, UniProt P00533, L861R); conditions: Classical-Like, 72 hours
T12 construct: expressed in transfected cells; host or cells: Ba/F3 cells, retroviral pBabe-Puro vector (vector made by GeneScript from EGFR WT)

EGFR L833V = target: T13, EGFR L833V (Homo sapiens, UniProt P00533, L833V); conditions: Classical-Like, 72 hours
T13 construct: expressed in transfected cells; host or cells: Ba/F3 cells, retroviral pBabe-Puro vector

EGFR L833F = target: T14, EGFR L833F (Homo sapiens, UniProt P00533, L833F); conditions: Classical-Like, 72 hours
T14 construct: expressed in transfected cells; host or cells: Ba/F3 cells, retroviral pBabe-Puro vector
Description: as §4, §2, §5

EGFR L858R/C797S = target: T15, EGFR L858R/C797S (Homo sapiens, UniProt P00533, C797S/L858R); conditions: Ba/F3 cells, EGFR L858R/C797S (PACC), Mut/WT
T15 construct: expressed in transfected cells; host or cells: Ba/F3
Description: as §1, §2, §3

EGFR L858R/L792H = target: T16, EGFR L858R/L792H (Homo sapiens, UniProt P00533, L792H/L858R); conditions: Ba/F3 cells, EGFR L858R/L792H (PACC), Mut/WT
T16 construct: expressed in transfected cells; host or cells: Ba/F3
Description: as §1, §2, §3

EGFR L858R = target: T17, EGFR L858R (Homo sapiens, UniProt P00533, L858R); conditions: Classical-Like, 72 hours
T17 construct: expressed in transfected cells; host or cells: Ba/F3 cells, retroviral pBabe-Puro vector
Description: as §4, §2, §5

[1] = target: T18, EGFR L747_K754del insATSPE (Homo sapiens, UniProt P00533, DEL747-749/K754E); conditions: T790M-like-3S, 72 hours
T18 construct: expressed in transfected cells; host or cells: Ba/F3 cells, retroviral pBabe-Puro vector

EGFR G719S = target: T19, EGFR G719S (Homo sapiens, UniProt P00533, G719S); conditions: Ba/F3 cells, EGFR G719S (PACC), Mut/WT
T19 construct: expressed in transfected cells; host or cells: Ba/F3

EGFR Ex19del/T790M/L792H = target: T20, EGFR Ex19del/T790M/L792H (Homo sapiens, UniProt P00533, DEL746-750/L792H/T790M); conditions: T790M-like-3R, 72 hours
T20 construct: expressed in transfected cells; host or cells: Ba/F3
Description: (§6) Data represent the ratio of the IC50 value for a given TKI for cells with a T790M-like-3R EGFR mutation to the IC50 value for cells with wildtype EGFR.
as §2
(§7) After 48-72 hours of transduction, 2 μg/ml puromycin (Invitrogen) was added to Ba/F3 cell lines in complete RPMI. To select for EGFR positive cell lines, cells were stained with PE-EGFR (Biolegend) and sorted by FACS. After sorting, EGFR positive cells were maintained in RPMI containing 10% FBS, 1% penicillin/streptomycin, and 1 ng/ml EGF to support cell viability. […] Shortly, cells were plated in 384-well plates (Greiner Bio-One) at 2000-3000 cells per well in technical triplicate. Seven different concentrations of TKIs or DMSO vehicle were added to reach a final volume of 40 μL per well. After 72 hours, 11 μL of Cell Titer Glo (Promega) was added to each well. Plates were incubated for a minimum of 10 minutes, and bioluminescence was determined using a FLUOstar OPTIMA plate reader (BMG LABTECH). Raw bioluminescence values were normalized to DMSO control treated cells, and values were plotted in GraphPad Prism. […] Drug screens were performed in technical triplicate on each plate and either duplicate or triplicate biological replicates. […] Statistical differences between groups were determined by ANOVA as described in the figure legends.

EGFR L858R G724S = target: T21, EGFR L858R G724S (Homo sapiens, UniProt P00533, G724S/L858R); conditions: Ba/F3 cells, EGFR L858R G724S (PACC), Mut/WT
T21 construct: expressed in transfected cells; host or cells: Ba/F3 (retroviral transduction, pBabe-Puro based vectors)

EGFR G719S T790M = target: T22, EGFR G719S T790M (Homo sapiens, UniProt P00533, G719S/T790M); conditions: T790M-like-3S, 72 hours
T22 construct: expressed in transfected cells; host or cells: Ba/F3

EGFR Ex19del T790M C797S = target: T23, EGFR Ex19del T790M C797S (Homo sapiens, UniProt P00533, C797S/DEL746-750/T790M); conditions: T790M-like-3R, 72 hours
T23 construct: expressed in transfected cells; host or cells: Ba/F3
Description: as §6, §2, §7

EGFR T790M = target: T24, EGFR T790M (Homo sapiens, UniProt P00533, T790M); conditions: T790M-like-3S, 72 hours
T24 construct: expressed in transfected cells; host or cells: Ba/F3

ratio of the IC50 value for cells with a PACC EGFR mutation to the IC50 value for cells with wildtype EGFR (EGFR R776H) | ratio of the IC50 value for cells with a PACC EGFR mutation to the IC50 value for cells with wildtype EGFR (EGFR G719A) | ratio of the IC50 value for cells with a PACC EGFR mutation to the IC50 value for cells with wildtype EGFR (EGFR K757R) | ratio of IC50 for cells with mutant EGFR to IC50 for cells with wildtype EGFR (Mut/WT) (EGFR L858R/V834L) | ratio of the IC50 value for cells with a PACC EGFR mutation to the IC50 value for cells with wildtype EGFR (EGFR S768I V774M) | ratio of IC50 for cells with mutant EGFR to IC50 for cells with wildtype EGFR (Mut/WT) (EGFR Ex19del T790M L718V) | ratio of IC50 for cells with mutant EGFR to IC50 for cells with wildtype EGFR (Mut/WT) (EGFR L858R S784F) | ratio of the IC50 value for cells with a PACC EGFR mutation to the IC50 value for cells with wildtype EGFR (EGFR Ex19del G796S) | ratio of IC50 for cells with mutant EGFR to IC50 for cells with wildtype EGFR (Mut/WT) (EGFR L858R T790M L718V) | ratio of the IC50 value for cells with a PACC EGFR mutation to the IC50 value for cells with wildtype EGFR (EGFR E709_T710del insD) | ratio of IC50 for cells with mutant EGFR to IC50 for cells with wildtype EGFR (Mut/WT) (EGFR L861R) | ratio of IC50 for cells with mutant EGFR to IC50 for cells with wildtype EGFR (Mut/WT) (EGFR L833V) | ratio of IC50 for cells with mutant EGFR to IC50 for cells with wildtype EGFR (Mut/WT) (EGFR L833F) | ratio of the IC50 value for cells with a PACC EGFR mutation to the IC50 value for cells with wildtype EGFR (EGFR L858R/C797S) | ratio of the IC50 value for cells with a PACC EGFR mutation to the IC50 value for cells with wildtype EGFR (EGFR L858R/L792H) | ratio of IC50 for cells with mutant EGFR to IC50 for cells with wildtype EGFR (Mut/WT) (EGFR L858R) | ratio of IC50 for cells with mutant EGFR to IC50 for cells with wildtype EGFR (Mut/WT) [1] | ratio of the IC50 value for cells with a PACC EGFR mutation to the IC50 value for cells with wildtype EGFR (EGFR G719S) | ratio of IC50 for cells with mutant EGFR to IC50 for cells with wildtype EGFR (Mut/WT) (EGFR Ex19del/T790M/L792H) | ratio of the IC50 value for cells with a PACC EGFR mutation to the IC50 value for cells with wildtype EGFR (EGFR L858R G724S) | Compound | also measured
0.1146 | 0.141 | 0.1439 | 0.006716 | 0.1109 | 0.02165 | 0.04569 | 0.8234 | 0.8754 | 0.2299 | 0.02937 | 0.03803 | 0.1289 | 2.242 | 0.1405 | 0.01716 | 0.0001357 | 0.214 | 2.218 | 0.02052 | C=CC(=O)Nc1cccc(Oc2nc(Nc3ccc(N4CCN(C)CC4)cc3)nc3ccsc23)c1 [Olmutinib] | ratio of IC50 for cells with mutant EGFR to IC50 for cells with wildtype EGFR (Mut/WT) (EGFR Ex19del): 0.0008432; ratio of IC50 for cells with mutant EGFR to IC50 for cells with wildtype EGFR (Mut/WT) (EGFR G719S T790M): 0.02453; ratio of IC50 for cells with mutant EGFR to IC50 for cells with wildtype EGFR (Mut/WT) (EGFR Ex19del T790M C797S): 1.926; ratio of IC50 for cells with mutant EGFR to IC50 for cells with wildtype EGFR (Mut/WT) (EGFR T790M): 0.04611
0.5095 | 0.1344 | 1.658 | 0.05339 | 0.4917 | 0.02994 | 0.1921 | 1.137 | 0.6413 | 0.497 | 0.09054 | 0.02478 | 0.03054 | 5.266 | 0.2624 | 0.07863 | 0.00433 | 0.2727 | 4.634 | 0.5799 | C=CC(=O)N1CC[C@@H](Oc2nc(Nc3ccc(N4CCC(N5CCN(C)CC5)CC4)cc3)c(C(N)=O)nc2CC)C1 [Naquotinib] | ratio of IC50 for cells with mutant EGFR to IC50 for cells with wildtype EGFR (Mut/WT) (EGFR Ex19del): 0.006035; ratio of IC50 for cells with mutant EGFR to IC50 for cells with wildtype EGFR (Mut/WT) (EGFR G719S T790M): 0.1409; ratio of IC50 for cells with mutant EGFR to IC50 for cells with wildtype EGFR (Mut/WT) (EGFR Ex19del T790M C797S): 14.64; ratio of IC50 for cells with mutant EGFR to IC50 for cells with wildtype EGFR (Mut/WT) (EGFR T790M): 0.4037
0.6077 | 0.362 | 0.349 | 0.003768 | 0.7678 | 0.4667 | 0.02456 | 1.423 | 0.5404 | 0.5663 | 0.05091 | 0.006132 | 0.08625 | 28.05 | 0.1416 | 0.03702 | 2.781 | 0.1555 | 1.105 | 0.0004647 | C=CC(=O)Nc1cc(Nc2nccc(-n3cc(CN(C)C)c(-c4ccccc4)n3)n2)c(OC)cc1N1CCOCC1 [Lazertinib] | ratio of IC50 for cells with mutant EGFR to IC50 for cells with wildtype EGFR (Mut/WT) (EGFR G719S T790M): 0.003464; ratio of IC50 for cells with mutant EGFR to IC50 for cells with wildtype EGFR (Mut/WT) (EGFR Ex19del T790M C797S): 26.17; ratio of IC50 for cells with mutant EGFR to IC50 for cells with wildtype EGFR (Mut/WT) (EGFR T790M): 0.2517
